Results on 14 compounds are retold here after PubChem BioAssay (NCI).

Molecules are shown by their SMILES.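 The compound was tested at five concentrations on cells cultured in 96-well plates, with a 48-hour exposure period. Here, GI50 denotes the concentration required for 50% inhibition of growth. TGI is the concentration that stops growth completely.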

Broadly, the GI50 is the concentration giving 50% growth inhibition. As usually defined, the TGI is the concentration giving total growth inhibition. A lower TGI goes with more potent growth arrest.

Assay in all cases: DTP human tumour cell line panel, 48 h
Test [1] relates to U251 CNS.
The subject of test [2] is NCI-H226 lung.
The subject of test [3] is MDA-MB-231 breast.
Test [4] concerns HCT-116 colon.
Test [5] relates to HOP-92 NSCLC.
Test [6] concerns SNB-75 CNS.
For test [7], the system named is KM12 colon.
Test [8] deals with HT29 colon.
The test system of test [9] is SK-MEL-28 melanoma.
The subject of test [10] is UO-31 renal.

With `NS(=O)(=O)c1ccc(Nc2cc(-c3ccc(O)c(F)c3)[nH]n2)cc1`, the GI50 in [1] is 16.4 µM; in [2] it was above 25 µM; in test [3], above 25 µM; in [4] it was above 25 µM; in [5] it was above 18.3 µM; in [6], above 25 µM. In addition, the GI50 is 10.3 µM in [7], above 25 µM in test [8], above 25 µM in test [9] and above 25 µM in [10]. Besides, the TGI in test [1], in test [2], in [3], in test [4], in test [5] and in [6] was above 25 µM each time. Moreover, the TGI in test [7], in test [8], in test [9] and in test [10] was above 25 µM each time.
As for `O=C(Nc1ccc(Oc2ccc(F)cc2)cc1)[C@@H]1C[C@@H](Cc2ccc(F)cc2)CN1C(=O)Cn1ccnn1`, the GI50 was 4.79 µM in [1]; 7.79 µM in test [2]; 8.91 µM in test [3]; 4.79 µM in test [4]; 7.54 µM in test [5]; 4.03 µM in test [6]. Further, the GI50 in test [7] is 9.43 µM; in test [8], 4.2 µM; in test [9] it was 6.72 µM; in test [10] it was 3.5 µM. Besides, the TGI worked out at 22.2 µM in [1]; 29 µM in [2]; 26.6 µM in [3]; 17.3 µM in test [4]; 31.3 µM in test [5]; 31.8 µM in test [6]. The total growth inhibition concentration (TGI) in test [7] came out at 24.1 µM; in test [8], 15 µM; in test [9], 20.6 µM; in [10] it was 25.2 µM.
For the compound `COc1cc2cc(Oc3ccc(NC(=O)Nc4cc(C(F)(F)F)cc(C(F)(F)F)c4)cc3)c(C)nc2cc1OCCN1CCOCC1`, the GI50 in test [1] was 1.13 µM; in test [2] it was 1.6 µM; in test [3], 1.7 µM; in test [4], 1.42 µM; in [5], 0.9 µM; in test [6] it was 1.02 µM. Also, the GI50 is 1.53 µM in test [7], 1.75 µM in test [8], 1.8 µM in test [9] and 1.01 µM in test [10]. Also, the TGI turned out to be 2.85 µM in test [1]; 6.53 µM in test [2]; 6.45 µM in test [3]; 5.33 µM in test [4]; 2.71 µM in test [5]; 4.48 µM in [6]. In addition, the TGI in [7] is 5.95 µM; in test [8] it was 7.14 µM; in test [9], 6.94 µM; in test [10], 4.06 µM.
On to `C#Cc1cccc(Nc2ncnc3cc(NC(=O)CCl)ccc23)c1`, for which the GI50 in test [1] was 0.789 µM; in test [2] it was 4.72 µM; in [3], 3.35 µM; in test [4] it was 1.19 µM; in [5], 3.56 µM; in test [6], 1.53 µM. In addition, the GI50 in test [7] was 3.29 µM; in test [8] it was 1.06 µM; in test [9] it was 3.67 µM; in [10] it was 2.55 µM. The TGI in [1] came to 2.92 µM; in test [2], 11.6 µM; in test [3] it was 7.28 µM; in [4], 4.15 µM; in test [5], 8.09 µM; in test [6] it was 5.01 µM. Further, the TGI turned out to be 7.13 µM in test [7], 5.74 µM in test [8], 7.34 µM in [9] and 5.6 µM in [10].
`CCCCN(CCCC)C(=O)[C@H](CC)[C@@H]1CC[C@@H](C)[C@@H]([C@H](C)[C@@H](O)[C@@H](C)C(=O)[C@H](CC)C2O[C@]3(C=C[C@@H](O)[C@]4(CC[C@@](C)([C@H]5CC[C@](O)(CC)[C@H](C)O5)O4)O3)[C@H](C)C[C@@H]2C)O1` (stereo not given in full): the GI50 in test [1] was 2.78 µM; in [2], 2.01 µM; in [3] it was 1.57 µM; in test [4], 2.39 µM; in test [5], 1.2 µM; in [6], 1.78 µM. Also, the GI50 is 1.83 µM in [7], 2.88 µM in test [8], 4.21 µM in [9] and 2.26 µM in [10]. In addition, the TGI in [1] stood at 10.3 µM; in [2] it was 5.51 µM; in [3], 3.19 µM; in test [4], 6.9 µM; in [5], 4.05 µM; in test [6], 26.9 µM. Further, the total growth inhibition concentration (TGI) in test [7] worked out at 3.91 µM; in [8] it was 12.4 µM; in [9] it was 81.1 µM; in [10], 8.6 µM.
Consider `O=C(CS(=O)(=O)c1nc2ccccc2nc1-c1ccccc1)Nc1ccc(F)cc1`, for which the GI50 is 37.9 µM in test [1]; 85.7 µM in [2]; 34.7 µM in test [3]; 25.7 µM in test [4]; 22.3 µM in [5]; above 100 µM in [6]. The GI50 in test [7] is 31 µM; in test [8], 33.6 µM; in [9], above 100 µM; in test [10], 59.1 µM. Further, the TGI in [1], in test [2], in test [3], in test [4], in test [5] and in test [6] was above 100 µM in each case. The concentration for total growth inhibition (TGI) in test [7] is 97.7 µM; in test [8], above 100 µM; in test [9], above 100 µM; in test [10] it was above 100 µM.
Take `CCN(CC)c1ccc(/C=C/C(=O)c2ccc(Nc3nc(Nc4ccccc4)nc(Nc4ccccc4)n3)cc2)cc1`: the GI50 in test [1] is 4.82 µM; in [2], 26.9 µM; in [3], 13.5 µM; in test [4], 2.47 µM; in [5], 0.0316 µM; in [6], 3.9 µM. For the same compound, the GI50 in test [7] is 1.42 µM; in [8] it was 20.3 µM; in [9], 19.8 µM; in test [10] it was 2.69 µM. Besides, the TGI in test [1] is above 100 µM; in [2], above 100 µM; in [3], above 100 µM; in [4], above 100 µM; in test [5] it was 4.84 µM; in [6] it was 64.8 µM. The total growth inhibition concentration (TGI) in test [7] was 65.1 µM; in test [8], above 100 µM; in test [9], above 100 µM; in [10] it was above 100 µM.
For the compound `N#CCn1c(=O)c(Oc2ccc(F)cc2F)cc2cnc(NC3CCOCC3)nc21`, the GI50 in [1] is above 25 µM; in test [2], above 25 µM; in test [3], above 25 µM; in test [4], above 25 µM; in test [5] it was 15.4 µM; in test [6] it was above 25 µM. Also, the GI50 was above 25 µM in test [7], above 25 µM in test [8], above 25 µM in test [9] and above 19.8 µM in test [10]. Also, the concentration for total growth inhibition (TGI) in test [1], in [2], in [3], in [4], in test [5] and in test [6] was above 25 µM throughout. Besides, the TGI in test [7], in [8], in test [9] and in test [10] was above 25 µM in each case.
Take `CSC1=NC(=Nc2c(C)cccc2C)C2(CCC(C(C)(C)C)CC2)N1c1ccc(Cl)cc1` (stereo not given): the GI50 in test [1] was 8.04 µM; in [2], 8.93 µM; in test [3], above 100 µM; in test [4], 4.87 µM; in test [5] it was 67.8 µM; in test [6], above 100 µM. Further, the GI50 in test [7] was 20.9 µM; in test [8] it was 38 µM; in test [9] it was 99.6 µM; in test [10], 25.2 µM. Moreover, the TGI in test [1], in test [2], in [3], in [4], in test [5] and in test [6] was above 100 µM each time. Moreover, the TGI in test [7], in test [8], in [9] and in [10] was above 100 µM throughout.
For `O=C1NC(=NCc2ccccc2Cl)S/C1=C\c1ccc2ncccc2c1`, the GI50 in test [1] is 6.44 µM; in test [2], above 18.3 µM; in test [3], above 25 µM; in test [4], 3.98 µM; in test [5], 5.85 µM; in test [6], 0.785 µM. Besides, the GI50 is above 21.8 µM in [7], above 25 µM in test [8], above 25 µM in test [9] and above 13.6 µM in test [10]. For the same compound, the TGI in test [1] was above 25 µM; in test [2], above 25 µM; in test [3], above 25 µM; in test [4], above 25 µM; in test [5], above 22.1 µM; in test [6], above 21.8 µM. Moreover, the TGI in test [7], in test [8], in test [9] and in test [10] was above 25 µM in each case.
With `COc1ccc(-c2cc(-c3ccc(Nc4nc(Nc5ccccc5)nc(Nc5ccc(Cl)cc5)n4)cc3)nc(N)n2)cc1`, the GI50 in test [1] is 8.41 µM; in test [2] it was 12.9 µM; in [3], 8.28 µM; in test [4], 6.74 µM; in test [5], 5.28 µM; in test [6], 6.02 µM. In addition, the GI50 in test [7] was 4.72 µM; in test [8] it was 7.56 µM; in test [9] it was 10.9 µM; in test [10], 8.13 µM. Also, the TGI was above 50 µM in test [1]; above 50 µM in [2]; above 50 µM in [3]; 16.8 µM in test [4]; 19.3 µM in [5]; 48.1 µM in [6]. Moreover, the TGI in test [7] was 45.1 µM; in test [8] it was 21.8 µM; in test [9], 26.5 µM; in test [10], above 50 µM.
Take `CC(=O)Nc1ccc(C(=O)CCl)cc1`: the GI50 in test [1] was 12.4 µM; in test [2], 16.9 µM; in test [3] it was 4.02 µM; in test [4] it was 2.2 µM; in [5], 2.12 µM; in test [6], 3.46 µM. The GI50 in test [7] is 12.2 µM; in test [8], 2.45 µM; in test [9] it was 2.49 µM; in test [10] it was 1.71 µM. Further, the TGI was 25.1 µM in test [1]; 42.6 µM in test [2]; 14.8 µM in test [3]; 4.95 µM in test [4]; 4.95 µM in [5]; 16 µM in [6]. Moreover, the TGI was 25.7 µM in [7], 5.04 µM in test [8], 7.54 µM in test [9] and 3.26 µM in test [10].
On to `COc1cc2oc(-c3cccc(C(=O)Nc4ccc(Cl)cc4)c3)cc(=O)c2c(OC)c1OC`, for which the GI50 is 4.08 µM in test [1]; 2.24 µM in test [2]; 1.58 µM in test [3]; 1.9 µM in test [4]; 1.46 µM in test [5]; 2.66 µM in test [6]. For the same compound, the GI50 in [7] is 2.37 µM; in [8] it was 1.97 µM; in test [9] it was 1.84 µM; in [10], 2.85 µM. In addition, the TGI in test [1] was above 100 µM; in test [2], 94.8 µM; in [3] it was above 100 µM; in test [4], above 100 µM; in [5], 5.58 µM; in test [6] it was above 100 µM. Moreover, the TGI in [7] was above 100 µM; in [8], 6.65 µM; in test [9], 5.89 µM; in test [10] it was above 100 µM.
On to `COc1cc2c(c(OC)c1OC)-c1ccc(NN(C(=O)c3ccccc3)C(=O)c3ccccc3)c(=O)cc1[C@@H](NC(C)=O)CC2` (tested in a mixture with another compound), for which the GI50 in test [1] was 3.77 µM; in [2] it was 10.6 µM; in test [3], 3.39 µM; in test [4], 2.95 µM; in test [5], 3.84 µM; in test [6], 5.08 µM. The GI50 in test [7] is 3.63 µM; in test [8], 2.93 µM; in test [9], 8.76 µM; in test [10], 4.59 µM. For the same compound, the TGI in [1] is 21.3 µM; in test [2], 37.4 µM; in [3], above 100 µM; in test [4], 8.88 µM; in [5], above 100 µM; in test [6] it was above 100 µM. The TGI in test [7] amounted to 25.7 µM; in [8] it was 11.1 µM; in test [9] it was 29 µM; in test [10], 41.6 µM.
